Assay results published in ChEMBL document CHEMBL5150010 (J Med Chem, 2021).
pIC50: −log10 of the molar value.

How the values were obtained:
[1] = Inhibition of Influenza A virus H5N1-1220 Neuraminidase
[2] = Inhibition of Influenza A virus H9N2-S2 Neuraminidase
[3] = Inhibition of Influenza A virus H5N2 Neuraminidase
[4] = Inhibition of Influenza A virus H5N1 Neuraminidase
in vitro [5] = conditions: dog, MDCK cells
[6] = Acute toxicity in Kunming mouse assessed as clonic convulsion at 1000 mg/kg, IG observed upto 1 week; format: organism-based; conditions: in vivo, po, 168 h, time < 1 weeks
Cytochrome P450 2C9 = Cytochrome P450 2C9 (Homo sapiens, UniProt P11712); format: ADME, microsomes, Liver, Microsome
in vivo [7] = conditions: Sprague-Dawley, rat, iv, 2 mg/kg
in vivo [8] = conditions: Sprague-Dawley, rat, iv, 2 mg/kg; remark: listed apart in the source
in vitro [9] = conditions: human, liver microsomes
[10] = Oral bioavailability in Sprague-Dawley rat at 20 mg/kg measured upto 24 hrs by LC-MS/MS analysis; format: ADME, organism-based; conditions: in vivo
[11] = Tmax in Sprague-Dawley rat at 20 mg/kg, po measured upto 24 hrs by LC-MS/MS analysis; format: ADME, organism-based; conditions: in vivo
Cytochrome P450 1A2 = biological target: T1, Cytochrome P450 1A2 (Homo sapiens, UniProt P05177)
T1 sequence (P05177 whole entry): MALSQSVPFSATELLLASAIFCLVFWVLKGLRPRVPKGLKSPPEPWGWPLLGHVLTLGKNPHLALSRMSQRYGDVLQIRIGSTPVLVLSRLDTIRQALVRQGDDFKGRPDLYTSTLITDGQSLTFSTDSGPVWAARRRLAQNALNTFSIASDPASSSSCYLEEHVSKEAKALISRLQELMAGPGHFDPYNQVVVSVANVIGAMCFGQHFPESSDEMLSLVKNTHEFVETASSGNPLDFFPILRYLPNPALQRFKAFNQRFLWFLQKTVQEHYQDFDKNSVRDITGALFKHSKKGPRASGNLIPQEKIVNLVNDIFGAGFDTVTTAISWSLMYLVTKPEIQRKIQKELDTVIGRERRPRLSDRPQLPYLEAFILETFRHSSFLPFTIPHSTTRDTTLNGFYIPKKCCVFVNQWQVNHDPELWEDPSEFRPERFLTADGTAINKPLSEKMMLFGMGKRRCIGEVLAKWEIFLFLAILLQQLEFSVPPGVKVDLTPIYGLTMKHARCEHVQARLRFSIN

[12] = Subacute toxicity in female Kunming mouse assessed as increase in body weight at 50 mg/kg, IG mesured every second day for 2 weeks; format: organism-based; conditions: in vivo, po, 336 h
[13] = Acute toxicity in Kunming mouse assessed as animal death at 1000 mg/kg, IG observed upto 1 week; format: organism-based; conditions: in vivo, po, 168 h, time < 1 weeks
[14] = Subacute toxicity in Kunming mouse assessed as water consumption at 50 mg/kg, IG mesured every second day for 2 weeks; format: organism-based; conditions: in vivo, po, 336 h
[15] = rat, in vivo, po, 20 mg/kg, 24 h
in vitro [16] = conditions: human, liver
[17] = Subacute toxicity in Kunming mouse assessed as animal death at 50 mg/kg, IG mesured every second day for 2 weeks; format: organism-based; conditions: in vivo, po, 336 h
[18] = Volume of distribution in Sprague-Dawley rat at 2 mg/kg, iv measured upto 24 hrs by LC-MS/MS analysis; format: ADME, organism-based; conditions: in vivo
[19] = Half life in Sprague-Dawley rat at 20 mg/kg, po measured upto 24 hrs by LC-MS/MS analysis; format: ADME, organism-based; conditions: in vivo
Cytochrome P450 2C19 = Cytochrome P450 2C19 (Homo sapiens, UniProt P33261); format: ADME, microsomes, Liver, Microsome
in vitro [20] = conditions: human, liver microsomes; remark: listed apart in the source
[21] = Half life in Sprague-Dawley rat at 2 mg/kg, iv measured upto 24 hrs by LC-MS/MS analysis; format: ADME, organism-based; conditions: in vivo
[22] = Subacute toxicity in male Kunming mouse assessed as increase in body weight at 50 mg/kg, IG mesured every second day for 2 weeks; format: organism-based; conditions: in vivo, po, 336 h
Cytochrome P450 3A4 = Cytochrome P450 3A4 (Homo sapiens, UniProt P08684)
[23] = Acute toxicity in Kunming mouse assessed as anorexia at 1000 mg/kg, IG observed upto 1 week; format: organism-based; conditions: in vivo, po, 168 h, time < 1 weeks
in vivo [24] = conditions: Sprague-Dawley, rat, po, 20 mg/kg
[25] = Cmax in Sprague-Dawley rat at 2 mg/kg, iv measured upto 24 hrs by LC-MS/MS analysis; format: ADME, organism-based; design: time < 24 hrs, dose 2 mg/kg, route iv; conditions: in vivo
[26] = Acute toxicity in Kunming mouse assessed as lethargy at 1000 mg/kg, IG observed upto 1 week; format: organism-based; conditions: in vivo, po, 168 h, time < 1 weeks
in vitro [27] = conditions: human, liver microsomes; remark: listed apart in the source
Cytochrome P450 2D6 = Cytochrome P450 2D6 (Homo sapiens, UniProt P10635)
[28] = Acute toxicity in Kunming mouse assessed as increase in body weight at 1000 mg/kg, IG observed upto 1 week; format: organism-based; conditions: in vivo, po, 168 h, time < 1 weeks
[29] = Tmax in Sprague-Dawley rat at 2 mg/kg, iv measured upto 24 hrs by LC-MS/MS analysis; format: ADME, organism-based; conditions: in vivo
[30] = Subacute toxicity in Kunming mouse assessed as food consumption at 50 mg/kg, IG mesured every second day for 2 weeks; format: organism-based; conditions: in vivo, po, 336 h
[31] = Cmax in Sprague-Dawley rat at 20 mg/kg, po measured upto 24 hrs by LC-MS/MS analysis; format: ADME, organism-based; design: dose 20 mg/kg, time < 24 hrs, route po; conditions: in vivo
in vitro [32] = conditions: human, liver microsomes; remark: listed apart in the source
[33] = Acute toxicity in Kunming mouse assessed as ruffled fur at 1000 mg/kg, IG observed upto 1 week; format: organism-based; conditions: in vivo, po, 168 h, time < 1 weeks

Chain of Cytochrome P450 3A4 (P08684 whole entry): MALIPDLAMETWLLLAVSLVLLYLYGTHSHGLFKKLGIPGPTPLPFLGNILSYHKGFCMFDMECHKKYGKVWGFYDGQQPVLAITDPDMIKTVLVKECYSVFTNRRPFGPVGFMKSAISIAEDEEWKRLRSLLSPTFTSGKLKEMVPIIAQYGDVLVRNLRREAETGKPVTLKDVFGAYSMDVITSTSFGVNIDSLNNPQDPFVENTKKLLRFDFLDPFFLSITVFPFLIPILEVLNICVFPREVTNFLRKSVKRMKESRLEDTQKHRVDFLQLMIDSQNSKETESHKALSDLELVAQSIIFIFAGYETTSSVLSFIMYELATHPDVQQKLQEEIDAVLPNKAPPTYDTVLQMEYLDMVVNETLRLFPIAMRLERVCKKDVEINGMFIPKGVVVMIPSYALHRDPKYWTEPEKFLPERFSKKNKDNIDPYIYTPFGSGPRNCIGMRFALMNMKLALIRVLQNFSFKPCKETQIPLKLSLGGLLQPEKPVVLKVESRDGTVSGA
Chain of Cytochrome P450 2D6 (P10635 whole entry): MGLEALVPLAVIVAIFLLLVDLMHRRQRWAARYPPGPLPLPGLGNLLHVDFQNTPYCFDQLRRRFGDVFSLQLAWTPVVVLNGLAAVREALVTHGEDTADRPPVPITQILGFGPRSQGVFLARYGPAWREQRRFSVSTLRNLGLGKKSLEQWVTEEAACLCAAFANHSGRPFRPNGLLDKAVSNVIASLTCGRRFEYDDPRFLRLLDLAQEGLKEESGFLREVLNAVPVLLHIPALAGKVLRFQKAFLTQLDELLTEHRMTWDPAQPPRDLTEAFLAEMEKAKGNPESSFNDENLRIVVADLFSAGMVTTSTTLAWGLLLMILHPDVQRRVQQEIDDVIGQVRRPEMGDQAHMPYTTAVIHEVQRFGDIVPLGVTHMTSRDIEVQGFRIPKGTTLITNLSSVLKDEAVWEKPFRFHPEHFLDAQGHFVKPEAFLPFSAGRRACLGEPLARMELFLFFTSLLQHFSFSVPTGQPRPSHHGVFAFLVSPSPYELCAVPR
Chain of Cytochrome P450 2C19 (P33261 whole entry): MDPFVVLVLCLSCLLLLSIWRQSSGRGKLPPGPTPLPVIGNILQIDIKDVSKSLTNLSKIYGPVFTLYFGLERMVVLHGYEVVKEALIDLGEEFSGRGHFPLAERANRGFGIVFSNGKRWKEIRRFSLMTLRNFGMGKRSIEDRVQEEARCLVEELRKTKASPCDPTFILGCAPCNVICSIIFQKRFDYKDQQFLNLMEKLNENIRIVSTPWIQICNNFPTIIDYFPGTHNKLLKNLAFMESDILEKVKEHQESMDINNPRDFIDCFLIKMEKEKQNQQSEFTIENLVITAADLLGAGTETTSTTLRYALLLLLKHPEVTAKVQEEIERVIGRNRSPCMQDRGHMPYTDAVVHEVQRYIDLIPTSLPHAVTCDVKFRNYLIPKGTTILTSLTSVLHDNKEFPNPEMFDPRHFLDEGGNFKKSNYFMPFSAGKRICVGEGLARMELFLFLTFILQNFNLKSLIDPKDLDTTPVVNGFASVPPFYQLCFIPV
Chain of Cytochrome P450 2C9 (P11712 whole entry): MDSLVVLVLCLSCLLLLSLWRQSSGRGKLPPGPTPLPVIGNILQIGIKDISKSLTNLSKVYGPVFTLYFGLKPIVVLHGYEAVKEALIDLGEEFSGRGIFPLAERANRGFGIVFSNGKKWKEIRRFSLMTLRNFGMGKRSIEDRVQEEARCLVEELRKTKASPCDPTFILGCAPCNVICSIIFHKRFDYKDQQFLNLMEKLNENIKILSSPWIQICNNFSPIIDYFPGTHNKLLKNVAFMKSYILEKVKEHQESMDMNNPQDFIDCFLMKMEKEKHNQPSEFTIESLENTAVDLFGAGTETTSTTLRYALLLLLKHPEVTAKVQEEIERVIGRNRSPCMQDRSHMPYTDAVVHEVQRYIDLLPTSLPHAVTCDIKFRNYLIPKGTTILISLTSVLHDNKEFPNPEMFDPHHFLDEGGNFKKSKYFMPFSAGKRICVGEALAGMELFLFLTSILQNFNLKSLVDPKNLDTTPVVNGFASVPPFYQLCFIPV

SMILES: CCC(CC)O[C@@H]1C=C(C(=O)O)C[C@H](NCc2ccc(-c3ccccc3)cc2)[C@H]1NC(C)=O
- pIC50 [1]: 8.72
- pIC50 [2]: 6.24

SMILES: CCC(CC)O[C@@H]1C=C(C(=O)O)C[C@H](NCc2ccc(Sc3ccccc3)cc2)[C@H]1NC(C)=O
- pIC50 [3]: 6.06
- pIC50 [4]: 9.02

SMILES: CCC(CC)O[C@@H]1C=C(C(=O)O)C[C@H](NCc2ccc3oc4ccccc4c3c2)[C@H]1NC(C)=O
- CC50 at 48 h (in vitro [5]): 250 µM

SMILES: CCC(CC)O[C@@H]1C=C(C(=O)O)C[C@H](NCc2ccc3c(c2)c2ccccc2n3CC)[C@H]1NC(C)=O
- CC50 at 48 h (in vitro [5]): 250 µM

SMILES: CCC(CC)O[C@@H]1C=C(C(=O)O)C[C@H](NCc2ccc3sc4ccccc4c3c2)[C@H]1NC(C)=O
- Activity [6]: Non-Toxic
- pIC50 (Cytochrome P450 2C9): 4.22
- AUC(0-t) at 24 h (in vivo [7]): 4280 ng·h/mL
- AUC(0-inf) at 24 h (in vivo [8]): 4290 ng·h/mL
- microsomal CLint (in vitro [9]): < 9.6 µL/min/mg
- bioavailability [10]: 13.7%
- Tmax [11]: 30 min
- pIC50 (Cytochrome P450 1A2): 4.05
- Activity [12]: Toxic
- Activity [13]: Non-Toxic
- Activity [14]: Non-Toxic
- AUC [15]: 5854 ng·h/mL
- CLint scaled (in vitro [16]): < 8.6 mL/min/kg
- Activity [17]: Non-Toxic
- Vd [18]: 0.161 L/kg
- half-life [19]: 61.8 min
- pIC50 (Cytochrome P450 2C19): < 4.00
- half-life (in vitro [20]): > 145 min
- half-life [21]: 44.6 min
- Activity [22]: Toxic
- pIC50 (Cytochrome P450 3A4): < 4.00
- Activity [23]: Non-Toxic
- AUC(0-t) at 24 h (in vivo [24]): 5830 ng·h/mL
- Cmax [25]: 13000 ng/mL
- Activity [26]: Non-Toxic
- remaining at 1 h (in vitro [27]): 99.6%
- pIC50 (Cytochrome P450 2D6): 4.23
- CC50 at 48 h (in vitro [5]): 250 µM
- Activity [28]: Toxic
- Tmax [29]: 4.98 min
- Activity [30]: Non-Toxic
- Cmax [31]: 6300 ng/mL
- remaining at 1 h (in vitro [32]): 84.7%
- Activity [33]: Non-Toxic

SMILES: CCC(CC)O[C@@H]1C=C(C(=O)O)C[C@H](NCc2c3ccccc3cc3ccccc23)[C@H]1NC(C)=O
- CC50 at 48 h (in vitro [5]): 250 µM

SMILES: CCC(CC)O[C@@H]1C=C(C(=O)O)C[C@H](NCc2ccc3c(c2)Cc2ccccc2-3)[C@H]1NC(C)=O
- CC50 at 48 h (in vitro [5]): 250 µM

SMILES: O=C(O)Cc1ccccc1Nc1c(Cl)cccc1Cl [DICLOFENAC]
- microsomal CLint (in vitro [9]): 168 µL/min/mg
- CLint scaled (in vitro [16]): 151 mL/min/kg
- half-life (in vitro [20]): 8.2 min

SMILES: CCC(CC)O[C@@H]1C=C(C(=O)O)C[C@H](N)[C@H]1NC(C)=O [OSELTAMIVIR CARBOXYLATE]
- CC50 at 48 h (in vitro [5]): 250 µM

SMILES: C[C@]12CC[C@H]3[C@@H](CCC4=CC(=O)CC[C@@]43C)[C@@H]1CC[C@@H]2O [TESTOSTERONE]
- microsomal CLint (in vitro [9]): 73.6 µL/min/mg
- CLint scaled (in vitro [16]): 66.2 mL/min/kg
- half-life (in vitro [20]): 18.8 min
- remaining at 1 h (in vitro [27]): 9.8%
- remaining at 1 h (in vitro [32]): 87.2%
